For 2 compounds, MIC results are on record in patent US20040077655A1, “Piperazine derivatives for treatment of bacterial infections” (priority 2000, published 2004).

The assay can be described thus: MIC of test compounds against various organisms. Type of assay: cell-based, S. aureus, S. pneumoniae, H. influenzae, E. faecalis. The protocol:
The MIC (μg/ml) of test compounds against various organisms was determined: S. aureus Oxford, S. aureus WCUH29, S. pneumoniae 1629, S. pneumoniae N1387, S. pneumoniae ERY 2, H. influenzae Q1, E. faecalis 7.

Structures are written as SMILES.

Take `COc1ccc2nccc(NC(=O)N3CCN(CC(=O)c4cnc5ccccc5n4)CC3)c2n1` [Example 10, 4-(2-Oxo-2-quinoxalin-2-yl-ethyl)-piperazine-1-carboxylic acid (6-methoxy-[1,5]naphthyridin-4-yl)-amide.]: the MIC is ≤ 2 µg/mL.

On to `COc1ccc2nccc(NC(=O)N3CCN(CC(=O)c4ccc5c(c4)NC(=O)CO5)CC3)c2n1` [Example 12, 4-[2-Oxo-2-(3-oxo-3,4-dihydro-2H-benzo[1,4]oxazin-6-yl)-ethyl]piperazine-1-carboxylic acid (6-methoxy-[1,5]naphthyridin-4-yl)-amide.], for which the MIC is ≤ 0.25 µg/mL.
